The target of assay [1] is T1, KAT-II (Homo sapiens, UniProt Q8N5Z0).
T1 construct: made in house
Further details: method as in PMID 27367665. To be noted: previously measured; cited from earlier work.

A further assay concerns the target T2, human KAT-I (Homo sapiens, UniProt Q16773).
T2 sequence (Q16773 1-422): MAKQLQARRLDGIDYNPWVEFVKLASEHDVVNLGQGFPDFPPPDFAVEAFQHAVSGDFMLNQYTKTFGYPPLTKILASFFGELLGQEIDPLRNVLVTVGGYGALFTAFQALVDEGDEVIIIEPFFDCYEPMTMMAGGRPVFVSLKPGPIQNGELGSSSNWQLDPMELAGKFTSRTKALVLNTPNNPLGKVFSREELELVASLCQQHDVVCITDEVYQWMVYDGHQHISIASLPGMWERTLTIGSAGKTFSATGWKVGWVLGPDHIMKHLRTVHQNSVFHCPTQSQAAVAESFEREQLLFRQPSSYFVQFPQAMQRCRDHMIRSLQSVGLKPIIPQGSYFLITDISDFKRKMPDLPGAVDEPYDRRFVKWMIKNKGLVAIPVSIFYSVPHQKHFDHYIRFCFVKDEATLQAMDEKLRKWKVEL
Description: HPLC inhibition assay on recombinant human KAT-I (KYNA production). Format: biochemical.

For assay [2], the target named is T1, KAT-II. As to the kind of experiment: HPLC inhibition assay on recombinant human KAT-II (KYNA production). Format: biochemical. As to the method: GraphPad Prism v7.02 software[59] was used to develop a nonlinear regression fit of the data collected in the inhibition assays. The IC50 is reported with the standard error.
The expression and purification of recombinant KAT-I and KAT-II protein was completed as previously described[60],[61].
The KAT inhibition assay was based on that described previously. […] Following incubation, the reaction was terminated by adding formic acid (0.8 M) in a 1:1 ratio. 50 µL of the mixture was transferred into a vial with 950 µL of water for HPLC analysis.
The production of KYNA was measured using HPLC with UV detection at a wavelength of 330 nm, using a C18 reverse-phase column, and 50% (v/v) water and 50% (v/v) methanol mobile phase. The data was collected in triplicate.

Assay [3] concerns the target T1, KAT-II. Details: method as in PMID 27367665. To be noted: SPR, chi^2 0.34; cited from earlier work. A general note: Surface plasmon resonance follows binding to a sensor surface in real time, without labels.
Assay [4] deals with T1, KAT-II. As to the kind of experiment: Surface plasmon resonance binding assay, steady state affinity model. To be noted: KAT-II on CM5 chip, 25 °C, chi^2 0.481. As to the method:
SPR was employed to evaluate the binding profile of estradiol disulfate on KAT-II. KAT-II was bound to a CM5 chip by amine coupling (achieving approximately 8000 RU). […] Due to the nature of this interaction, kinetic analyses could not be performed to directly evaluate the association and dissociation rate constants.
SPR binding affinity measurements were performed using the Biacore T200 with a CM5 sensor chip (GE Healthcare Life Sciences, Sydney, Australia). The experiment was prepared and obtained with the Biacore T200 Control Software, and analysed with the Biacore T200 Evaluation Software.
Prior to performing the SPR experiments, the solutions were filter sterilised for 10 min at 25 °C. KAT-II was diluted to a concentration of 350 µg/mL using sodium acetate (pH 4.5). The Biacore T200 compartment temperature was controlled at 25 °C and the flow rate was set to 10 µL/min. Using a 1:1 mixture of EDC (400 mM) and sulfo-NHS (100 mM), two flow cells on a CM5 sensor chip (containing a carboxymethylated dextran surface) were activated. Flow cell one contained a blank immobilisation (PBST buffer injection) and flow cell two had the prepared KAT-II sample injected. The two flow cells were deactivated using an injection of 1 M ethanolamine.
The analyte, estradiol disulfate, was prepared in running buffer (PBST with 5% DMSO) in a concentration series from 170 nM-43750 nM. […]

Where [5] appears, read: recombinant human KAT-I, inhibitor 1–2000 µM, read-out: IC50 on KAT-I.
Setting [6] is: recombinant human KAT-II, inhibitor 1–2000 µM, read-out: IC50 on KAT-II.

Several values for one entry are separate records, joined by “and”; a condition that tells them apart may be missing. Identical values can stand only once. Counter-ions that a name gives are not always drawn. Like-named read-outs stand apart in the source and are kept apart here.

Results on seven compounds are retold here after paper PMC5730616, “Inhibition of human kynurenine aminotransferase isozymes by estrogen and its derivatives” (Scientific Reports, 2017).

T1 sequence (Q8N5Z0 30-425): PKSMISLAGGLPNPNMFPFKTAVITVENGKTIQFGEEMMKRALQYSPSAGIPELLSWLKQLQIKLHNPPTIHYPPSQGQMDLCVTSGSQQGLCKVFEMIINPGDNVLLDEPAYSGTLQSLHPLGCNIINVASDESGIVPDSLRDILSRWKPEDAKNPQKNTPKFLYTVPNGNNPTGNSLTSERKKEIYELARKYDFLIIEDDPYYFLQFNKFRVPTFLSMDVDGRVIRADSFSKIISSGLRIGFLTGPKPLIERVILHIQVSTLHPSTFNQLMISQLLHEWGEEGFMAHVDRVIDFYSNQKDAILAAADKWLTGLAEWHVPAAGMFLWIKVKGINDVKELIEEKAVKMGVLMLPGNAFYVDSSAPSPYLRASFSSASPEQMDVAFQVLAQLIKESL

For the compound `CC1COc2c(N3CCN(N)CC3)c(F)cc3c(=O)c(C(=O)O)cn1c23` (stereo not drawn) [BFF-122], the IC50 at KAT-II [1] was 15 to 20 µM.

As to `C[C@]12CCC3c4ccc(OS(=O)(=O)O)cc4CCC3C1CCC2=O` (stereo partly drawn) [estrone sulfate, estrone sulfate potassium salt], the IC50 at human KAT-I (setting [5]) is > 2000 µM; on KAT-II [2] (setting [6]), > 2000 µM and ~2000 µM.

Turning to `NC1Cc2ccccc2N(O)C1=O` (stereo not drawn) [PF-04859989, reference compound], the IC50 on KAT-II [1] was 1 to 3 µM.

Consider `O=C(O)C(Cc1ccccc1)N1C(=O)c2cc(Cl)c(Cl)cc2C1=O` (stereo not drawn) [NS-1502], for which, on KAT-II [1], the IC50 is 315 µM. For the same compound, the Kd on KAT-II [3] was 7.2 µM.

`C[C@]12CC[C@@H]3c4ccc(O)cc4CC[C@H]3[C@@H]1CC[C@@H]2O` [estradiol, reference compound]: the IC50 at human KAT-I and on KAT-II [2] was > 2000 µM throughout.

As for `C[C@]12CC[C@@H]3c4ccc(OS(=O)(=O)O)cc4CC[C@H]3[C@@H]1CC[C@@H]2OS(=O)(=O)O` [estradiol disulfate, estradiol 3,17-disulfate dipotassium salt], the concentration for half-maximal inhibition (IC50) on human KAT-I (recombinant human KAT-I, PLP 50 µM, L-KYN 5 mM, 37 °C 10 min, ± standard error, read-out: IC50 on KAT-I) came out at 292 µM; on KAT-II [2] (recombinant human KAT-II, PLP 50 µM, L-KYN 5 mM, 37 °C 10 min, ± standard error, read-out: IC50 on KAT-II), 26.3 µM. For the same compound, at KAT-II [4], the Kd was 5.05 µM. Moreover, the “Increase of inhibition compared to estradiol” value on KAT-II [2] (KAT-I and KAT-II inhibition assays, attributed to the 17-sulfate moiety) was 10–100 fold. The “Reversibility of KAT-II inhibition” value at KAT-II [2] (shown by varying PLP concentration in the reaction mixture) is “reversible”.

Regarding `C[C@]12CCC3c4ccc(OS(=O)(=O)O)cc4CCC3C1CC[C@@H]2O` (stereo partly drawn) [estradiol 3-sulfate, estradiol 3-sulfate sodium salt], the IC50 at human KAT-I (setting [5]) and at KAT-II [2] (setting [6]) was > 2000 µM in each case.

For orientation: IC50 means the concentration that gives 50% inhibition. What is called Kd is the equilibrium constant for the complex coming apart.
